Where no end group is shown, it is not given here.
Assays:
[1] = test system: BMRPA1 normal rat pancreatic acinar cells; assay: Growth and viability of untransformed BMRPA1 cells incubated with peptide; format: cell-based
Method: (§1) MIAPaCa-2 cells were grown in Dulbecco's modified Eagle's medium (GIBCO) supplemented with heat inactivated 10% fetal calf serum, 20 mM glutamine, penicillin (100 units/ml), streptomycin (100/ug/ml) and plated on a six-well plate with density no more then 20,000 cells/well in 3 ml culture medium. HT1080 cells were cultured in RPMI 1640 medium supplemented with 10% heat-inactivated fetal calf serum, 100 units/ml of penicillin and 100 ug/ml streptomycin and plated on six-well plates with a density of no more then 6,000 cells/well in 3 ml culture medium. BMRPA1 normal rat pancreatic acinar cells were grown as described previously.
(§2) All cells (approximately 2×10^4) were incubated in their respective media (see above) for 24 h after which the media were replaced with the same media containing one of the peptides at a concentration of 100 μg/ml. Over the subsequent time course of each experiment, the medium was changed every 48 h, but always contained peptide at the same concentration. Cells were observed daily for 1-3 weeks for changes in morphology and growth characteristics. After selected time periods, cells were stained with trypan blue or assayed using the MTT assay as described previously to assess cell counts. These experiments were performed at least three times for each cell line.

[2] = test system: HT-1080 fibrosarcoma cells; assay: Growth (cell counts) of HT-1080 cells incubated with peptide; format: cell-based, human; conditions: peptide 100 μg/ml, medium changed every 48 h; three-week observation period (FIG. 1)
Method: as §1, §2

[3] = test system: oncogenic (Val 12-containing) ras-p21-induced oocyte maturation; assay: Oncogenic ras-p21-induced oocyte maturation (GVBD); format: cell-based, Xenopus laevis; conditions: injected/co-injected with oncogenic ras-p21 into oocytes
Excerpt: (§3) The Applicants have synthesized both of the inventive peptides, referred to as PNC-7 and PNC-2, and assayed them for their abilities to block oncogenic ras-p21 induction of maturation of Xenopus laevis oocytes. Injection of oncogenic, but not wild-type ras-p21, into these oocytes induce oocyte maturation, i.e., completion of the second meiotic division, as measured by germinal vesicle membrane breakdown (GVBD). Insulin also induces oocyte maturation in a manner that requires activation of endogenous wild-type ras-p21.

[4] = test system: insulin-induced oocyte maturation; assay: Insulin-induced oocyte maturation (activated wild-type ras-p21); format: cell-based, Xenopus laevis; conditions: oocytes induced to mature with insulin
Excerpt: as §3

[5] = test system: oncogenic ras-p21-JNK interaction; assay: Oncogenic ras-p21-JNK interaction; format: binding; conditions: dose-response curve coincides with that for inhibition of oocyte maturation
[6] = target: oncogenic ras-p21 with raf (Homo sapiens, UniProt P04049); assay: Interaction of oncogenic ras-p21 with raf; format: binding
[7] = test system: caspase (CPP32) in MIA-PaCa-2 cells; assay: Clontech caspase (CPP32) activity assay for apoptosis; format: cell-based, human; conditions: relative to control background; TNF-alpha 20 ng/ml for 45 min as positive control (FIG. 4A)
Method: To detect if peptide-induced cell death occurred by apoptosis or necrosis, the Clontech caspase (CPP32) activity assay for elevated caspase was performed as described previously. In addition, to detect if significant cell necrosis occurred, the CytoTox96 assay for LDH released into the cell culture medium was used as also described previously. As a positive control for LDH release, the CytoTox96 assay was performed on the media of MIA-PaCa-2 cells that were incubated with 100 ug/ml PNC-28 peptide for 24 h.

MPFSTGKRIMLGEKKWKMRRNQFVKVQRG [PNC-29, reference compound]
cell growth or viability of untransformed BMRPA1 cells [1]: no effect either on cell growth or viability

NAVFRLLHEHKGKKAKKWKMRRNQFVKVQRG (CD45-MRP- Control peptide from the CD-45 antigen linked to penetratin) [CD-45-MRP]
tumor cell growth / cell count of HT-1080 cells [2]: no effect on tumor cell growth

YREQIKRVKDSDDVP (PNC-2 -ras-p21 residue 96-110)
inhibition of oncogenic ras-p21-induced oocyte maturation [3]: block | inhibition of insulin-induced oocyte maturation [4]: considerably less inhibitory activity | blocking of the oncogenic ras-p21-JNK interaction [5]: blocks the oncogenic ras-p21-JNK interaction

TIEDSYRQVVIDKKWKMRRNQFVKVQRG [PNC-7-MRP]
cell growth or viability of untransformed BMRPA1 cells [1]: no effect either on cell growth or viability

YREQIKRVKDSDDVPKKWKMRRNQFVKVQRG [PNC-2-MRP]
cell growth or viability of untransformed BMRPA1 cells [1]: no effect either on cell growth or viability

TIEDSYRQVVID (PNC-7- ras-p21 residue 35-47)
inhibition of oncogenic ras-p21-induced oocyte maturation [3]: block | inhibition of insulin-induced oocyte maturation [4]: considerably less inhibitory activity | blocking of the interaction of oncogenic ras-p21 with raf [6]: blocks the interaction of oncogenic ras-p21 with raf

TNF-alpha
caspase expression in MIA-PaCa-2 cells [7]: markedly elevated

Reference: patent US20100144636A1, “PEPTIDES DERIVED FROM RAS-P21 AND USES THEREFOR” (THE RESEARCH FOUNDATION OF STATE UNIVERSITY OF NEW YORK, priority 2008, published 2010)
